From the supplement of paper PMC11821682

How the values were obtained:
Danio rerio embryo [1] = experiment: LEL embryonic photomotor response 24 hpf
Procedure: (§1)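 ZBEscreen: dechorionated Tropical 5D zebrafish embryos were exposed from 4 hpf in 96-well plates (1% DMSO, 28 °C). All compounds were first tested at 100 µM; hits were retested at 0.005-100 µM. Morphology and mortality were scored at 120 hpf and fitted as BMC10 (3-parameter log-logistic, extra risk). The embryonic photomotor response at 24 hpf and the larval photomotor response at 120 hpf are given as lowest effect levels (K-S test, p<0.01). NA = not significant up to 100 µM; NT = not tested.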

Danio rerio embryo [2] = experiment: LEL larval photomotor response dark phase 120 hpf
Procedure: as §1

Danio rerio embryo [3] = experiment: BMC10 any morphological effect or mortality at 120 hpf; higher = less toxic
HL-60 = experiment: Cell Health Index (toxicity pseudo-probability over dose series) (index 0-1); higher = more cytotoxic / cell stress;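 also: HL-60 cells exposed 4 h at 37 °C to ten threefold dilutions spanning 5 nM to 100 µM, multiparametric flow cytometry features scored by machine-learning classification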

| Compound | LEL embryonic photomotor response 24 hpf (Danio rerio embryo [1]) | LEL larval photomotor response dark phase 120 hpf (Danio rerio embryo [2]) | BMC10 any morphological effect or mortality (Danio rerio embryo [3]) | Cell Health Index (HL-60) |
| --- | --- | --- | --- | --- |
| COc1ccc(-c2coc3cc(O)ccc3c2=O)cc1 [Formononetin] | 100 µM | > 100 µM | 23 µM | 0.288 |
| O=C(O)CCCCC1CCSS1 (racemic) [DL-alpha-Lipoic acid] | > 100 µM | > 100 µM | > 100 µM | 0.172 |
| CC(=O)O/N=C1/C(=C2\C(=O)Nc3cc(Br)ccc32)Nc2ccccc21 [BIO-Acetoxime] | > 100 µM | 33.3 µM | > 100 µM | 0.715 |
| C[C@H]1CC[C@@]2(OC1)O[C@H]1C[C@H]3[C@@H]4CC[C@@H]5C[C@@H](O[C@@H]6O[C@H](CO)[C@H](O)[C@H](O)[C@H]6O[C@@H]6O[C@H](CO)[C@@H](O)[C@H](O)[C@H]6O)CC[C@]5(C)[C@H]4CC[C@]3(C)[C@H]1[C@@H]2C [Timosaponin AIII] | > 100 µM | > 100 µM | > 100 µM | 0.935 |
| C/C=C(/C)C(=O)O[C@H]1c2cc(OC)c(OC)c(OC)c2-c2c(cc3c(c2OC)OCO3)C[C@H](C)[C@]1(C)O [Schisantherin B] | 100 µM | > 100 µM | 65.9 µM | 0.365 |
| CC(C)[C@H](NC(=O)[C@H](CCCNC(=N)N)NC(=O)NC(Cc1ccccc1)C(=O)O)C(=O)NC(C=O)CCCNC(=N)N.Cl.Cl (some centres undefined) [Antipain] | > 100 µM | > 100 µM | > 100 µM | 0.154 |
| CCC(CC)O[C@@H]1C=C(C(=O)O)C[C@H](N)[C@H]1NC(C)=O [Oseltamivir acid] | 0.046 µM | > 100 µM | > 100 µM | 0.174 |
| O.O=c1c(O)c(-c2ccc(O)c(O)c2)oc2cc(O)cc(O)c12 [Quercetin] | > 100 µM | > 100 µM | > 100 µM | 0.461 |
| CO[C@H]1O[C@@H]2O[C@@]3(C)CC[C@H]4[C@H](C)CC[C@@H]([C@H]1C)[C@@]24OO3 [Artemether] | 11.1 µM | 0.41 µM | 3.55 µM | 0.289 |
| CS(=O)(=O)O.CS(=O)(=O)O.N=C(N)Nc1ccc(C(=O)Oc2ccc3cc(C(=N)N)ccc3c2)cc1 [Nafamostat] | > 100 µM | > 100 µM | > 100 µM | 0.422 |
| COc1cc(NC(C)CCCN)c2ncccc2c1.O=P(O)(O)O.O=P(O)(O)O (centres undefined) [Primaquine] | > 100 µM | > 100 µM | > 100 µM | 0.352 |
| O=C1NC(=O)c2c1c1c3ccccc3[nH]c1c1[nH]c3ccccc3c21 [Arcyriaflavin A] | > 100 µM | > 100 µM | 1.1 µM | 0.393 |
| C/C=C/C[C@@H](C)[C@@H](O)[C@H]1C(=O)N[C@@H]([C@@H](C)O)C(=O)N(C)CC(=O)N(C)[C@@H](CC(C)C)C(=O)N[C@@H](C(C)C)C(=O)N(C)[C@@H](CC(C)C)C(=O)N[C@@H](C)C(=O)N[C@H](C)C(=O)N(C)[C@@H](CC(C)C)C(=O)N(C)[C@@H](CC(C)C)C(=O)N(C)[C@@H](C(C)C)C(=O)N1C [Cyclosporin C] | 33.3 µM | 3.7 µM | > 100 µM | 0.918 |
| COc1cc(-c2oc3cc(O)cc(O)c3c(=O)c2O[C@@H]2O[C@H](CO[C@@H]3O[C@@H](C)[C@H](O)[C@@H](O)[C@H]3O)[C@@H](O)[C@H](O)[C@H]2O)ccc1O [Narcissoside] | > 100 µM | > 100 µM | > 100 µM | 0.248 |
| CC(C)(Sc1cc(C(C)(C)C)c(O)c(C(C)(C)C)c1)Sc1cc(C(C)(C)C)c(O)c(C(C)(C)C)c1 [Probucol] | 0.005 µM | > 100 µM | > 100 µM | 0.134 |
| C=C[C@H]1C[N@@]2CC[C@H]1C[C@@H]2[C@@H](O)c1ccnc2ccc(OC)cc12 [Quinidine] | > 100 µM | > 100 µM | > 100 µM | 0.197 |
| O=c1ccc2cc3ccoc3cc2o1 [Psoralen] | 100 µM | 33.3 µM | 29.2 µM | 0.105 |
| Cc1cc(C)nc(NS(=O)(=O)c2ccc(NC(=S)NC(=O)COc3ccc(Br)cc3Cl)cc2)n1 [ZCL 278] | 100 µM | > 100 µM | > 100 µM | 0.221 |
| Cl.N=c1ccn2c(n1)O[C@H]1[C@H](O)[C@@H](CO)O[C@H]12 [Cyclocytidine] | > 100 µM | > 100 µM | > 100 µM | 0.207 |
| COc1cc(C[C@H]2C(=O)OC[C@@H]2Cc2ccc(OC)c(OC)c2)ccc1O [Arctigenin] | > 100 µM | 3.7 µM | > 100 µM | 0.617 |
| CC(=O)c1c(O)cc(O)cc1O.O [Phloroacetophenone] | > 100 µM | > 100 µM | > 100 µM | 0.231 |
| Oc1cc(O)c2c(c1)O[C@H](c1ccc(O)c(O)c1)[C@H](O)[C@H]2c1c(O)cc(O)c2c1O[C@H](c1ccc(O)c(O)c1)[C@@H](O)C2 [Procyanidin B1] | > 100 µM | > 100 µM | > 100 µM | 0.406 |
| CCC(=O)c1ccc(F)c([C@@H]2C[C@@H]2NC(=O)Nc2ccc(C#N)cn2)c1O [MIV-150] | > 100 µM | > 100 µM | > 100 µM | 0.306 |
| COc1c2c(cc3c1-c1c(cc4c(c1OC)OCO4)CC(C)C(C)C3)OCO2 (centres undefined) [Schisandrin C] | 11.1 µM | > 100 µM | 2.06 µM | 0.61 |
| O=C1CCC[C@@H]2[C@H]3CCCN4CCC[C@@H](CN12)[C@@H]34 [Matrine] | > 100 µM | > 100 µM | > 100 µM | 0.14 |

| Compound | LEL embryonic photomotor response 24 hpf (Danio rerio embryo [1]) | LEL larval photomotor response dark phase 120 hpf (Danio rerio embryo [2]) | BMC10 any morphological effect or mortality (Danio rerio embryo [3]) | Cell Health Index (HL-60) |
| --- | --- | --- | --- | --- |
| C=C1CC[C@@H]2[C@](C)(CO)[C@H](O)CC[C@@]2(C)[C@@H]1/C=C/C1=CCOC1=O [14-deoxy-11,12-didehydro Andrographolide] | 100 µM | > 100 µM | > 100 µM | 0.43 |
| CC(C)c1nc(CN(C)C(=O)N[C@@H](CCN2CCOCC2)C(=O)N[C@H](CC[C@H](Cc2ccccc2)NC(=O)OCc2cncs2)Cc2ccccc2)cs1 [Cobicistat] | > 100 µM | > 100 µM | > 100 µM | 0.831 |
| O=c1cc(-c2ccccc2)oc2cc(O)c(O)c(O)c12 [Baicalein] | > 100 µM | > 100 µM | > 100 µM | 0.551 |
| CC(C)C[C@H](NC(=O)[C@H]1O[C@@H]1C(=O)O)C(=O)NCCCCNC(=N)N [E-64] | > 100 µM | > 100 µM | > 100 µM | 0.121 |
| O=c1cc(-c2ccc(O)cc2)oc2cc(O)cc(O)c12 [Apigenin] | > 100 µM | > 100 µM | > 100 µM | 0.288 |
| O=C(NCc1ccco1)c1ccc2c(c1)N(Cc1c(F)cccc1Cl)C(=O)CS2 [G10] | 11.1 µM | > 100 µM | > 100 µM | 0.311 |
| C[C@@H]1CCO[C@H]2Cn3cc(C(=O)NCc4ccc(F)cc4F)c(=O)c(O)c3C(=O)N12 [Dolutegravir] | > 100 µM | > 100 µM | > 100 µM | 0.167 |
| CC(C)(C)C1=C(O)C(C(C)(C)C)=CC(/C=C(C#N)\C#N)=C1 [Malonoben] | 0.14 µM | > 100 µM | > 100 µM | 0.861 |
| O=C(OC[C@H]1O[C@@H](OC(=O)c2cc(O)c(O)c(OC(=O)c3cc(O)c(O)c(O)c3)c2)[C@H](OC(=O)c2cc(O)c(O)c(OC(=O)c3cc(O)c(O)c(O)c3)c2)[C@@H](OC(=O)c2cc(O)c(O)c(OC(=O)c3cc(O)c(O)c(O)c3)c2)[C@@H]1OC(=O)c1cc(O)c(O)c(OC(=O)c2cc(O)c(O)c(O)c2)c1)c1cc(O)c(O)c(OC(=O)c2cc(O)c(O)c(O)c2)c1 [Chinese Gallotannin] | 100 µM | > 100 µM | 32.8 µM | 0.935 |
| CCS(=O)(=O)Nc1ccc2c(c1)/C(=C(/Nc1ccc(CN3CCCCC3)cc1)c1ccccc1)C(=O)N2 [Hesperadin] | 3.7 µM | > 100 µM | 2.02 µM | 0.882 |
| C[C@@H]1CC[C@H]2[C@@H](C)C(=O)O[C@@H]3O[C@@]4(C)CC[C@@H]1[C@]32OO4 [Artemisinin] | 33.3 µM | 3.7 µM | 39.4 µM | 0.169 |
| C=C(C)[C@@H]1CC[C@]2(C(=O)O)CC[C@]3(C)[C@H](CC[C@@H]4[C@@]5(C)CC[C@H](O)C(C)(C)[C@@H]5CC[C@]43C)[C@@H]12 [Betulinic acid] | > 100 µM | 100 µM | > 100 µM | 0.4 |
| FC(F)(F)c1cc(C(F)(F)F)c2ccc3nc(-c4nnco4)cn3c2n1 [RO8191] | 11.1 µM | 11.1 µM | 26.9 µM | 0.274 |
| O=C(Nc1c(Cl)cncc1Cl)c1ccc(OC(F)F)c(OCC2CC2)c1 [Roflumilast] | 0.015 µM | 0.14 µM | > 100 µM | 0.296 |
| Cc1ccc(C2Nc3ccccc3C(=O)N2c2ccccc2)s1 (centres undefined) [Retro-2] | 0.14 µM | > 100 µM | 0.795 µM | 0.241 |
| N#C/C(=C\c1ccc(O)c(O)c1)C(=O)NCCCc1ccccc1 [Tyrphostin AG 555] | > 100 µM | > 100 µM | 1.13 µM | 0.494 |
| C[C@H](NC(=O)Cc1cc(F)cc(F)c1)C(=O)N[C@@H]1C(=O)N(C)c2ccccc2-c2ccccc21 [DBZ] | 11.1 µM | 0.41 µM | 0.365 µM | 0.293 |
| CC(C)(C)OC(=O)N[C@H]1CCCCC/C=C\[C@@H]2C[C@@]2(C(=O)NS(=O)(=O)C2CC2)NC(=O)[C@@H]2C[C@@H](OC(=O)N3Cc4cccc(F)c4C3)CN2C1=O [Danoprevir] |  |  | > 100 µM | 0.26 |
| C[C@@H]1CCN(C(=O)CC#N)C[C@@H]1N(C)c1ncnc2[nH]ccc12.O=C(O)CC(O)(CC(=O)O)C(=O)O [Tofacitinib] |  |  | > 100 µM | 0.228 |
| COc1ccc(/C=C/C(=O)O)cc1O [Isoferulic acid] |  |  | > 100 µM | 0.171 |
| Oc1ccc(/C=C\c2cc(O)cc(O)c2)cc1 [Resveratrol] |  |  | > 100 µM | 0.416 |
| Cc1cc(/C=C/C#N)cc(C)c1Nc1ccnc(Nc2ccc(C#N)cc2)n1 [Rilpivirine] |  |  | > 100 µM | 0.639 |
| COC(=O)N[C@H](C(=O)N1CCC[C@H]1c1ncc(-c2ccc(-c3ccc(-c4cnc([C@@H]5CCCN5C(=O)[C@@H](NC(=O)OC)C(C)C)[nH]4)cc3)cc2)[nH]1)C(C)C [Daclatasvir] |  |  | > 100 µM | 0.208 |
| c1cc(CN2CCCNCCNCCCNCC2)ccc1CN1CCCNCCNCCCNCC1 [Plerixafor] |  |  | > 100 µM | 0.115 |
| CC(C)(C)NC(=O)[C@@H]1CN(Cc2cccnc2)CCN1C[C@@H](O)C[C@@H](Cc1ccccc1)C(=O)N[C@H]1c2ccccc2C[C@H]1O.O=S(=O)(O)O [Indinavir] |  |  | > 100 µM | 0.233 |
